Source: ChEMBL document CHEMBL1135057, “A combinatorial library of indinavir analogues and its in vitro and in vivo studies” (Bioorg Med Chem Lett, 2002)
pIC50: −log10 of the molar value.

Assays:
[1] = target: T1, Human immunodeficiency virus type 1 protease (Human immunodeficiency virus 1, UniProt Q72874); test: Tested in vitro for the ability to inhibit cleavage of a substrate by the wild type HIV-1 protease
[2] = tested on: Human immunodeficiency virus 1; test: Inhibition of the spread of viral infection in MT-4 human T-lymphoid cells infected by IIIb isolate; format: functional; details: Human immunodeficiency virus 1, T-lymphoid; read-out: CIC95
[3] = target: T1, Human immunodeficiency virus type 1 protease; test: Tested in vitro for potential potency against PI-resistant HIV virus by A-44 mutant enzyme variant

## Cn1nc(C(F)(F)F)cc1-c1ccc(CN2CCN(C[C@@H](O)C[C@@H](Cc3ccccc3)C(=O)NC3c4ccccc4C[C@H]3O)[C@H](C(=O)NC(C)(C)C)C2)s1 (single isomer, unassigned)
[1]
  pIC50: > 10.00
[2]
  IC95: 6 nM
[3]
  pIC50: > 9.22
